# Test system: adults with moderate-to-severe chronic pain associated with osteoarthritis (OA) of the knee or hip
# Assay: FACT OA1 (NCT03161093, R475-OA-1611) Phase 3 trial, WOMAC pain and physical function
# Type: in vivo, human
# Conditions: FACT OA1, Week 16; fasinumab 1 mg Q4W, naproxen 2 × 500 mg/day
# Source text: NCT02683239 (R475-PN-1523, or “FACT LTS”), NCT03161093 (R475-OA-1611, or “FACT OA1”), and NCT03304379 (R475-OA-1688, or “FACT OA2”) each were Phase 3 trials evaluating fasinumab in adults with moderate-to-severe chronic pain associated with osteoarthritis (OA) of the knee or hip. All three of these trials enrolled patients with OA of the knee or hip who had inadequate pain relief with acetaminophen and were intolerant to or had inadequate pain relief with opioids, or were unwilling or unable to take opioids. Complete inclusion and exclusion criteria for the trials are described at clinicaltrials.gov/ct2/show/NCT03161093, clinicaltrials.gov/ct2/show/NCT03304379, and clinicaltrials.gov/ct2/show/NCT02683239.
# FACT OA1 and FACT OA2 assessed the efficacy of fasinumab in comparison to nonsteroidal anti-inflammatory drugs (NSAIDs; naproxen, diclofenac, or celecoxib) for treatment of OA. FACT OA1 includes results from a total of 1,801 patients randomized to one of four treatment arms: fasinumab 1 mg SC once every 8 weeks (Q8W) (n=304), fasinumab 1 mg SC once every 4 weeks (Q4W) (n=639), naproxen 500 mg twice daily (n=644), or placebo (n=214). In FACT OA2, patients were randomized into one of six treatment groups: fasinumab 1 mg SC once every 4 weeks (Q4W), fasinumab 3 mg SC once every 4 weeks (Q4W), fasinumab 6 mg SC once every 8 weeks (Q8W), celecoxib 200 mg once daily, diclofenac 75 mg twice daily, or placebo. While the FACT OA2 trial was still ongoing, enrollment into the fasinumab 3 mg Q4W and 6 mg Q8W groups was stopped for safety considerations; patients enrolled in those dose regimens discontinued study drug and entered the post-treatment follow-up period.
# Fasinumab patients in both trials also reported improvements in their pain and physical function (WOMAC score) compared to those treated with the highest-approved prescription doses of NSAIDS.
compound,measurement,value
"COc1ccc2cc([C@H](C)C(=O)O)ccc2c1 [Naproxen, naproxen, reference compound]","WOMAC pain, change from baseline",−33%
same,"WOMAC pain, change from baseline (score, in brackets)",(−2.13)
same,"WOMAC physical function, change from baseline",−31%
same,"WOMAC physical function, change from baseline (score, in brackets)",(−1.98)

# Reference: patent US20240002491A1, “METHODS FOR SELECTING PATIENTS FOR TREATMENT WITH AN NGF ANTAGONIST” (Regeneron Pharmaceuticals, Inc., priority 2022, published 2024)
